Laboratory results published in the supplement of paper PMC4862054.
Several values for one entry are separate records, joined by “and”; a condition that tells them apart may be missing. Equal values may be shown once.

Each compound was assayed on HCC1599 (assay: normalised viability (% of control), CellTiter-Blue; higher = more viable cells (about 100 = DMSO control)). Conditions: 10 nM; incubation time: 72 h.
Procedure, shortened: (§1)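 Vehicle (100) and a positive kill control (0) anchored the normalisation of each plate, and Z'-factor was used for quality control. Breast cancer cell lines in 20 µl suspension were incubated 72 h over compound in 5 µl medium in 384-well plates, followed by CellTiter-Blue at 560/590 nm. The value is normalised viability at a single listed concentration of the series.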
`CO[C@@]12[C@H](COC(N)=O)C3=C(C(=O)C(C)=C(N)C3=O)N1C[C@@H]1N[C@@H]12` [Mitomycin C] gave a normalised viability of 110%.
In the case of `CC1(C)CCC(c2ccc(Cl)cc2)=C(CN2CCN(c3ccc(C(=O)NS(=O)(=O)c4ccc(N[C@H](CCN5CCOCC5)CSc5ccccc5)c(S(=O)(=O)C(F)(F)F)c4)cc3)CC2)C1` [Navitoclax], the normalised viability is reported as 94.5%.
For `Cc1cn(-c2cc(NC(=O)c3ccc(C)c(Nc4nccc(-c5cccnc5)n4)c3)cc(C(F)(F)F)c2)cn1` [Nilotinib], the normalised viability was 93.3% and 95.8%.
With `C=CCN(/C=C1/C(=O)O[C@H](COC)[C@@]2(C)C1=C(O)C(=O)C1=C2[C@H](OC(C)=O)C[C@]2(C)C(=O)CC[C@@H]12)CC=C` [PX-866] the normalised viability was 98.3%.
Compound `CC[C@H](CO)Nc1nc(NCc2ccccc2)c2ncn(C(C)C)c2n1` [Roscovitine] has a normalised viability of 109%.

Same assay, conditions: 100 nM; incubation time: 72 h
In the case of `CCNC(=O)c1noc(-c2cc(C(C)C)c(O)cc2O)c1-c1ccc(CN2CCOCC2)cc1` [NVP-AUY922], the normalised viability is reported as 43.4%.

Same assay, conditions: 1000 nM; incubation time: 72 h
Work on `COc1c2occc2cc2ccc(=O)oc12` [Methoxsalen] yielded a normalised viability of 85%.
Compound `CO[C@@H]1[C@H](N(C)C(=O)c2ccccc2)C[C@H]2O[C@]1(C)n1c3ccccc3c3c4c(c5c6ccccc6n2c5c31)C(=O)NC4` [Midostaurin] has a normalised viability of 78.8%.
With `CO[C@@]12[C@H](COC(N)=O)C3=C(C(=O)C(C)=C(N)C3=O)N1C[C@@H]1N[C@@H]12` [Mitomycin C] the normalised viability was 73.2%.
`CCNC(=O)c1noc(-c2cc(C(C)C)c(O)cc2O)c1-c1ccc(CN2CCOCC2)cc1` [NVP-AUY922] was tested, and the normalised viability was 41.2%.
`CC1(C)CCC(c2ccc(Cl)cc2)=C(CN2CCN(c3ccc(C(=O)NS(=O)(=O)c4ccc(N[C@H](CCN5CCOCC5)CSc5ccccc5)c(S(=O)(=O)C(F)(F)F)c4)cc3)CC2)C1` [Navitoclax] was tested, and the normalised viability was 62.2%.
Compound `C=CCN(/C=C1/C(=O)O[C@H](COC)[C@@]2(C)C1=C(O)C(=O)C1=C2[C@H](OC(C)=O)C[C@]2(C)C(=O)CC[C@@H]12)CC=C` [PX-866] has a normalised viability of 105%.
In the case of `CC[C@H](CO)Nc1nc(NCc2ccccc2)c2ncn(C(C)C)c2n1` [Roscovitine], the normalised viability is reported as 95.8%.

Same assay, conditions: 10000 nM; incubation time: 72 h
In the case of `COc1c2occc2cc2ccc(=O)oc12` [Methoxsalen], the normalised viability is reported as 93.5%.
Compound `CO[C@@H]1[C@H](N(C)C(=O)c2ccccc2)C[C@H]2O[C@]1(C)n1c3ccccc3c3c4c(c5c6ccccc6n2c5c31)C(=O)NC4` [Midostaurin] has a normalised viability of 72.6%.
`CO[C@@]12[C@H](COC(N)=O)C3=C(C(=O)C(C)=C(N)C3=O)N1C[C@@H]1N[C@@H]12` [Mitomycin C] gave a normalised viability of 14.6%.
Compound `CC1(C)CCC(c2ccc(Cl)cc2)=C(CN2CCN(c3ccc(C(=O)NS(=O)(=O)c4ccc(N[C@H](CCN5CCOCC5)CSc5ccccc5)c(S(=O)(=O)C(F)(F)F)c4)cc3)CC2)C1` [Navitoclax] has a normalised viability of 74.7%.
In the case of `C=CCN(/C=C1/C(=O)O[C@H](COC)[C@@]2(C)C1=C(O)C(=O)C1=C2[C@H](OC(C)=O)C[C@]2(C)C(=O)CC[C@@H]12)CC=C` [PX-866], the normalised viability is reported as 78.3%.
With `CC[C@H](CO)Nc1nc(NCc2ccccc2)c2ncn(C(C)C)c2n1` [Roscovitine] the normalised viability was 64.4%.

These compounds were tested on HCC1143 in the same assay as above. Conditions: 1 nM; incubation time: 72 h.
Procedure, shortened: as §1
`CCNC(=O)c1noc(-c2cc(C(C)C)c(O)cc2O)c1-c1ccc(CN2CCOCC2)cc1` [NVP-AUY922] gave a normalised viability of 119%.

Same assay, conditions: 10 nM; incubation time: 72 h
For `COc1c2occc2cc2ccc(=O)oc12` [Methoxsalen], the normalised viability was 91.8%.
`CO[C@@H]1[C@H](N(C)C(=O)c2ccccc2)C[C@H]2O[C@]1(C)n1c3ccccc3c3c4c(c5c6ccccc6n2c5c31)C(=O)NC4` [Midostaurin] gave a normalised viability of 145%.
Work on `CO[C@@]12[C@H](COC(N)=O)C3=C(C(=O)C(C)=C(N)C3=O)N1C[C@@H]1N[C@@H]12` [Mitomycin C] yielded a normalised viability of 78.3%.
For `CC1(C)CCC(c2ccc(Cl)cc2)=C(CN2CCN(c3ccc(C(=O)NS(=O)(=O)c4ccc(N[C@H](CCN5CCOCC5)CSc5ccccc5)c(S(=O)(=O)C(F)(F)F)c4)cc3)CC2)C1` [Navitoclax], the normalised viability was 71.8%.
With `Cc1cn(-c2cc(NC(=O)c3ccc(C)c(Nc4nccc(-c5cccnc5)n4)c3)cc(C(F)(F)F)c2)cn1` [Nilotinib] the normalised viability was 70.6% and 81.2%.
`C=CCN(/C=C1/C(=O)O[C@H](COC)[C@@]2(C)C1=C(O)C(=O)C1=C2[C@H](OC(C)=O)C[C@]2(C)C(=O)CC[C@@H]12)CC=C` [PX-866] showed a normalised viability of 91.6%.
Compound `CC[C@H](CO)Nc1nc(NCc2ccccc2)c2ncn(C(C)C)c2n1` [Roscovitine] has a normalised viability of 84.3%.

Same assay, conditions: 100 nM; incubation time: 72 h
`CCNC(=O)c1noc(-c2cc(C(C)C)c(O)cc2O)c1-c1ccc(CN2CCOCC2)cc1` [NVP-AUY922] was tested, and the normalised viability was 45%.

Same assay, conditions: 1000 nM; incubation time: 72 h
With `COc1c2occc2cc2ccc(=O)oc12` [Methoxsalen] the normalised viability was 99.1%.
`CO[C@@H]1[C@H](N(C)C(=O)c2ccccc2)C[C@H]2O[C@]1(C)n1c3ccccc3c3c4c(c5c6ccccc6n2c5c31)C(=O)NC4` [Midostaurin] showed a normalised viability of 75%.
Compound `CO[C@@]12[C@H](COC(N)=O)C3=C(C(=O)C(C)=C(N)C3=O)N1C[C@@H]1N[C@@H]12` [Mitomycin C] has a normalised viability of 72.4%.
For `CCNC(=O)c1noc(-c2cc(C(C)C)c(O)cc2O)c1-c1ccc(CN2CCOCC2)cc1` [NVP-AUY922], the normalised viability was 47.7%.
In the case of `CC1(C)CCC(c2ccc(Cl)cc2)=C(CN2CCN(c3ccc(C(=O)NS(=O)(=O)c4ccc(N[C@H](CCN5CCOCC5)CSc5ccccc5)c(S(=O)(=O)C(F)(F)F)c4)cc3)CC2)C1` [Navitoclax], the normalised viability is reported as 78.1%.
For `Cc1cn(-c2cc(NC(=O)c3ccc(C)c(Nc4nccc(-c5cccnc5)n4)c3)cc(C(F)(F)F)c2)cn1` [Nilotinib], the normalised viability was 98.7% and 101%.
`C=CCN(/C=C1/C(=O)O[C@H](COC)[C@@]2(C)C1=C(O)C(=O)C1=C2[C@H](OC(C)=O)C[C@]2(C)C(=O)CC[C@@H]12)CC=C` [PX-866] gave a normalised viability of 80.8%.
In the case of `CC[C@H](CO)Nc1nc(NCc2ccccc2)c2ncn(C(C)C)c2n1` [Roscovitine], the normalised viability is reported as 88.1%.

Same assay, conditions: 10000 nM; incubation time: 72 h
In the case of `COc1c2occc2cc2ccc(=O)oc12` [Methoxsalen], the normalised viability is reported as 94.2%.
`CO[C@@H]1[C@H](N(C)C(=O)c2ccccc2)C[C@H]2O[C@]1(C)n1c3ccccc3c3c4c(c5c6ccccc6n2c5c31)C(=O)NC4` [Midostaurin] gave a normalised viability of 61.3%.
`CO[C@@]12[C@H](COC(N)=O)C3=C(C(=O)C(C)=C(N)C3=O)N1C[C@@H]1N[C@@H]12` [Mitomycin C] showed a normalised viability of 20.4%.
In the case of `CC1(C)CCC(c2ccc(Cl)cc2)=C(CN2CCN(c3ccc(C(=O)NS(=O)(=O)c4ccc(N[C@H](CCN5CCOCC5)CSc5ccccc5)c(S(=O)(=O)C(F)(F)F)c4)cc3)CC2)C1` [Navitoclax], the normalised viability is reported as 65.3%.
